Results: the NIST ThermoML archive (doi:10.1016/j.jct.2016.08.010)

Assay: xn = mol fraction of the nth substance listed
Conditions: 100 kPa, Liquid; for speed of sound: Frequency=3 MHz, Sing-around technique in a fixed-path interferometer; for mass density: Vibrating tube method

CCCCn1cc[n+](C)c1C.F[B-](F)(F)F [1-butyl-2,3-dimethylimidazolium tetrafluoroborate] + CCn1cc[n+](C)c1.F[B-](F)(F)F
Conditions	mass density, 293.15 K [kg/m3]	mass density, 298.15 K [kg/m3]	mass density, 303.15 K [kg/m3]	mass density, 308.15 K [kg/m3]	speed of sound, 293.15 K [m/s]	speed of sound, 298.15 K [m/s]	speed of sound, 303.15 K [m/s]	speed of sound, 308.15 K [m/s]
x1 = 0.0952	1270.9	1267.3	1264.1	1260.5	1636.2	1624.1	1611.9	1600.4
x1 = 0.1386	1265.5	1262.1	1259	1255.6	1638.2	1626	1613.7	1602.1
x1 = 0.1754	1261.2	1257.9	1255	1251.7	1639.8	1627.4	1615.1	1603.4
x1 = 0.2361	1254.5	1251.5	1248.7	1245.7	1642.2	1629.6	1617.2	1605.3
x1 = 0.2819	1249.8	1247	1244.3	1241.4	1643.8	1631.1	1618.5	1606.6
x1 = 0.3347	1244.7	1242.1	1239.5	1236.7	1645.4	1632.5	1619.9	1607.9
x1 = 0.3722	1241.3	1238.8	1236.3	1233.6	1646.5	1633.5	1620.8	1608.7
x1 = 0.4192	1237.2	1234.9	1232.4	1229.9	1647.7	1634.6	1621.8	1609.7
x1 = 0.4451	1235.1	1232.8	1230.4	1227.9	1648.3	1635.1	1622.4	1610.2
x1 = 0.4807	1232.2	1230	1227.7	1225.2	1649.1	1635.8	1623	1610.8
x1 = 0.5327	1228.2	1226.1	1223.8	1221.4	1650.2	1636.8	1623.9	1611.7
x1 = 0.5785	1224.8	1222.8	1220.5	1218.2	1651	1637.6	1624.7	1612.4
x1 = 0.6364	1220.6	1218.7	1216.4	1214.2	1652.1	1638.5	1625.6	1613.2
x1 = 0.6729	1218	1216.1	1213.9	1211.7	1652.7	1639.1	1626.1	1613.7
x1 = 0.7342	1213.7	1211.8	1209.7	1207.6	1653.8	1640.1	1627.1	1614.6
x1 = 0.7738	1210.9	1209	1206.9	1204.9	1654.5	1640.8	1627.7	1615.2
x1 = 0.8254	1207.2	1205.4	1203.2	1201.3	1655.5	1641.7	1628.6	1616.1
x1 = 0.8739	1203.6	1201.8	1199.7	1197.8	1656.5	1642.7	1629.5	1616.9
x1 = 1	1193.5	1191.8	1189.7	1187.9	1659.7	1645.7	1632.5	1619.8
